# Measured values from patent US9120744B2, “Plasminogen activator inhibitor-1 inhibitors and methods of use thereof to modulate lipid metabolism” (THE REGENTS OF THE UNIVERSITY OF MICHIGAN, priority 2007, dated 2015).
# Where a name gives a salt, the structure may show the parent alone.
# Molecular target: recombinant active human PAI-1 (Homo sapiens (Human), UniProt P05121)
# Test: β-trypsin screening assay for PAI-1 inhibitors;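 note: fluorogenic readout with PAI-1 and β-trypsin at 10:1 molar ratio, untreated PAI-1 wells set as 100% PAI-1 activity and β-trypsin alone as 0%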
# Format: biochemical
# Conditions: 10 μM compound; hit = more than 3 standard deviations above control
# recombinant active human PAI-1, sequence (P05121 24-402): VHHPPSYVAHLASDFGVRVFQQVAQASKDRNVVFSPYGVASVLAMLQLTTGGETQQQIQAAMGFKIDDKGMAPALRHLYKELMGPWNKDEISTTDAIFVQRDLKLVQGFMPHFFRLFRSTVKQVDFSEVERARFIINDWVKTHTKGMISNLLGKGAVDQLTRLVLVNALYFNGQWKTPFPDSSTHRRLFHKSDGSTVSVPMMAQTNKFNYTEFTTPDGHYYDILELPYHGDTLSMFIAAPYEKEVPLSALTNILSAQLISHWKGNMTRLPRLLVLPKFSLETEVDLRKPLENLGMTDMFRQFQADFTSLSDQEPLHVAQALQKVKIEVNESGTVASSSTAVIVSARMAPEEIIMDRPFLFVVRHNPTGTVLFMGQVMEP
row,Compound,screening hit: restoration of β-trypsin activity
1,COc1ccccc1/C=C\C(=O)O [COUMARINIC ACID METHYL ETHER],demonstrate PAI-1 inhibitor activity
2,C=CC1=C(C(=O)O)N2C(=O)[C@@H](NC(=O)C(NC)c3csc(N)n3)[C@H]2SC1 (some centres unmarked),demonstrate PAI-1 inhibitor activity
3,CN1CCN(CC(=O)N2c3ccccc3C(=O)Nc3cccnc32)CC1 [PIRENZEPINE HYDROCHLORIDE],demonstrate PAI-1 inhibitor activity
4,CCc1oc2ccccc2c1C(=O)c1cc(Br)c(O)c(Br)c1 [NSC 85433],demonstrate PAI-1 inhibitor activity
5,CN1CCCC(n2nc(Cc3ccc(Cl)cc3)c3ccccc3c2=O)CC1 (centres unmarked) [AZELASTINE HYDROCHLORIDE],demonstrate PAI-1 inhibitor activity
6,CC(CCC(=O)O)[C@H]1CCC2C3CCC4CCCC[C@]4(C)C3CC[C@@]21C (some centres unmarked) [URSOCHOLANIC ACID],demonstrate PAI-1 inhibitor activity
7,Oc1c(Cl)cc(Cl)cc1Sc1cc(Cl)cc(Cl)c1O [BITHIONOL],demonstrate PAI-1 inhibitor activity
8,CC(C(=O)[O-])c1ccc(CC2CCCC2=O)cc1.[Na+] (centres unmarked) [LOXOPROFEN SODIUM],demonstrate PAI-1 inhibitor activity
9,O=C(O[C@H]1Cc2c(O)cc(O)cc2O[C@H]1c1cc(O)c(=O)c2c(O)c(O)cc([C@@H]3Oc4cc(O)cc(O)c4C[C@@H]3O)c2c1)c1cc(O)c(O)c(O)c1 [THEAFLAVIN MONOGALLATES],demonstrate PAI-1 inhibitor activity
10,COc1cc(OC)c2c(c1)O[C@H](c1ccc(OC)c(OC)c1)[C@@H](O)C2,demonstrate PAI-1 inhibitor activity
11,Cc1cc(C(C)(C)C)cc(C)c1CC1=NCCN1 [XYLOMETAZOLINE HYDROCHLORIDE],demonstrate PAI-1 inhibitor activity
12,CC(C)=CCCC1(C)C=Cc2c(O)c3c(c(CC=C(C)C)c2O1)OC12C(=CC4CC1C(C)(C)OC2(C/C=C(/C)C(=O)O)C4O)C3=O (centres unmarked) [DIHYD[…]],demonstrate PAI-1 inhibitor activity
13,CHLORAMPHENICOL HEMISUCCINATE,demonstrate PAI-1 inhibitor activity
14,CC1=NCCc2c1[nH]c1cc(O)ccc21.Cl [HARMALOL HYDROCHLORIDE],demonstrate PAI-1 inhibitor activity
15,SAPPANONE A DIMETHYL ETHER,demonstrate PAI-1 inhibitor activity
16,"c1ccc2c(Cc3c[nH]c4ccccc34)c[nH]c2c1 [3,3′-DIINDOLYLMETHANE]",demonstrate PAI-1 inhibitor activity
17,CCN(CC)CCCC(C)Nc1c2ccc(Cl)cc2nc2ccc(OC)cc12 (centres unmarked) [QUINACRINE HYDROCHLORIDE],demonstrate PAI-1 inhibitor activity
18,CCOP(=S)(OCC)SCSCC [PHORATE],demonstrate PAI-1 inhibitor activity
19,N=C1C=CC(=C(c2ccc(N)cc2)c2ccc(N)cc2)C=C1 [PARAROSANILINE PAMOATE],demonstrate PAI-1 inhibitor activity
20,CN(C)C(=S)SSC(=S)N(C)C [NSC 1771],demonstrate PAI-1 inhibitor activity
21,O=c1cc(-c2cc(O)c(O)c(O)c2)oc2cc(O)cc(O)c12 [HIERACIN],demonstrate PAI-1 inhibitor activity
22,O=c1c(O)cc([C@H]2Oc3cc(O)cc(O)c3C[C@H]2O)cc2c([C@H]3Oc4cc(O)cc(O)c4C[C@H]3O)cc(O)c(O)c12 [THEAFLAVIN],demonstrate PAI-1 inhibitor activity
23,O=C(O)C1CC([C@@H]2CCCCN2)CN2CCCCC12 (some centres unmarked) [APHYLLIC ACID],demonstrate PAI-1 inhibitor activity
